Measured values: patent publication US20050124696A1, “Pharmaceutical compositions” (priority 2001, published 2005)

How the values were obtained:
[1] = system: HSF; test: hsp70 promoter luciferase reporter assay in HeLa cell clone 13B (HSF activation); assay type: cell-based, human; settings: HeLa clone 13B, 8 h treatment
Experimental: (§1) Method: HeLa cell clone 13B, stably transfected with a luciferase reporter plasmid controlled by the human hsp70 promoter, and HeLa κB-transformed cells, stably transfected with a luciferase reporter plasmid controlled by a synthetic NF-κB-STM construct, were maintained in DMEM medium supplemented with 10% FBS, L-glutamine (2 mM) and G418 (250 μg/ml) at 37° C. in a 5% CO2 humidified atmosphere.
(§2) Cells were seeded at a density of 4×10^4 cells/well in 96-well plates. After 18-20 h, the medium was removed and cells were treated for 8 h with the test compounds (100 μl) at the appropriate dilutions in serum-free medium. For the NF-κB-dependent reporter gene assay, cells were stimulated with TPA (25 ng/ml) 2h after exposure to the compounds.
(§3) After incubation, the medium was removed and cells were lysed in 10 μl of lysis buffer. The luciferase activity was determined by adding 100 μl of substrate and measuring the release of light using a Victor 1420 microplate reader (Wallac, Finland).
The AC200/μM for HSF is the concentration at which the tested compound doubled the HSF activity in this assay. The IC50/μM for NF-κB is the concentration at which the tested compound halved the NF-κB activity in this assay.

[2] = system: NF-κB; test: NF-κB-dependent luciferase reporter gene assay in HeLa κB-transformed cells, TPA stimulated; assay type: cell-based; settings: Homo sapiens; HeLa NF-κB-STM luciferase, 8 h treatment, TPA 25 ng/ml 2 h after exposure; read-out: NF-κB; IC50 (concentration at which the tested compound halved the NF-κB activity)
Experimental: as §1, §2, §3
The fragment Kpn I-BamH I from the pGL3 basic vector containing the luciferase gene (PROMEGA) was inserted in the pcDNA3 vector (INVITROGEN) digested with Bgl II-KpnI. (This digestion removes the CMV-promoter from pcDNA3.) The resulting new vector was digested with Kpn I-Hind III and a promoter containing a ‘5×NF-κB binding sites—TATA box’ sequence was inserted upstream of the luciferase gene. […]

[3] = in vitro; assay type: cell-based; settings: human
Experimental: HeLa cells were plated in 96-well microtiter plates in 100 μl culture medium (4×10^4/well). After 20 hours, the cells were exposed to the test compounds at different dilutions and incubated for the next 8 h at 37° C. in a 5% CO2 humidified atmosphere. After 6 h incubation, the Alamar Blue was added in an amount equal to 10% of the culture volume (10 μl). Two hours after the addition of the Alamar Blue, the fluorescence was measured using a Victor 1420 microplate reader.
The LC50/μM is the concentration at which the tested compound killed half the cells in this assay.

[4] = system: Sendai virus; test: Replication of Sendai virus in 37RC cells (HAU titration of virus yield); assay type: cell-based; settings: Respirovirus muris, Sendai virus yield at 24 hours after infection, read-out: ID50 (50% inhibitory dose/concentration)
[5] = system: 37RC cells; test: Neutral Red cell viability assay; assay type: cell-based, monkey; settings: uninfected 37RC cells, 24 h
Experimental: Cell viability was determined using the Neutral Red assay. 37RC cells were seeded at density of 6×10^4 cells/well in 24-well plates and incubated for 24 h. Confluent 37RC monolayers were treated with the test compounds at different dilutions for 24 h at 37° C. After incubation, the medium was removed and the cells were incubated with RPM1 medium containing 40 μg/ml Neutral Red dye (500 μl/well). After 2 h at 37° C., the monolayers were washed with phosphate-buffered saline (PBS) and then with a solution containing 1% CaCl2 and 0.5% formaldehyde. After washing, a solution containing 1% acetic acid/50% ethanol was added to the monolayers (250 μl/well). After 10 min at room temperature, the absorbance was determined with a microplate reader (Victor 1420, Wallac) at 540 nm.

[6] = system: HSF1; settings: cited from earlier work
[7] = system: NF-κB; settings: chemical or physiological inducers; 'at the same concentration'; cited from earlier work
[8] = system: NF-κB; test: Luciferase activity of resistant HeLa NF-κB-LUC cell pool after stimulation; assay type: cell-based, human; settings: quadruplicate samples, control 1369±149
From the text: The fragment Kpn I-BamH I from the pGL3 basic vector containing the luciferase gene (PROMEGA) was inserted in the pcDNA3 vector (INVITROGEN) digested with Bgl II-KpnI. (This digestion removes the CMV-promoter from pcDNA3.) The resulting new vector was digested with Kpn I-Hind III and a promoter containing a ‘5×NF-κB binding sites—TATA box’ sequence was inserted upstream of the luciferase gene. This vector has been named STM.
To obtain stable HeLa cell lines expressing the luciferase gene under the control of NF-κB, HeLa cells were transfected (using lipofectamine plus GIBCO) with the STM-Pvu I linearized vector, and selected for 20 days with G418 (800 μg/ml). After selection, the resistant HeLa cell pool was controlled (in quadruplicate samples) for luciferase activity after stimulation with TNFα, IL-1 and TPA. The respective luciferase activities were: • 1) Control: 1369±149 • 2) TNFα: 6111±1231 • 3) IL-1: 11814±1151 • 4) TPA: 7181±444 Clones were selected.

[9] = system: uninfected cells; test: Toxicity to uninfected cells compared with the anti-viral concentration; assay type: cell-based

COC(=O)C(CSC1CC(=O)CC(O[Si](C)(C)C(C)(C)C)C1)NC(=O)OC(C)(C)C (stereo not drawn) [CTM-78, 2-tert-Butoxycarbonylamino-3-[3-(tert-butyl-dimethyl-silanyloxy)-5-oxo-cyclohexylsulfanyl]-propionic acid methyl ester]
HSF; AC200 (concentration at which the tested compound doubled the HSF activity) [1]: 45 µM | IC50 [2]: 22000 nM | CC50 at 8 h [3]: > 800000 nM | IC50 [4]: 3000 nM | LD50 (50% lethal dose/concentration) [5]: 18.6 µM

O=C1C=CCC1 [cyclopent-2-en-1-one]
concentration shown to activate HSF1 and trigger synthesis of HSP70 [6]: 125 to 500 µM | concentration shown to block NF-κB activation [7]: 125 to 500 µM

COC(=O)[C@H](CS[C@H]1CC(=O)CC[C@@H]1O[Si](C)(C)C(C)(C)C)NC(=O)OC(C)(C)C [CTM-68, 2-tert-Butoxycarbonylamino-3-[2-(tert-butyl-dimethyl-silanyloxy)-5-oxo-cyclohexylsulfanyl]-propionic acid methyl ester]
HSF; AC200 (concentration at which the tested compound doubled the HSF activity) [1]: 98 µM | IC50 [2]: 17000 nM | CC50 at 8 h [3]: > 800000 nM | IC50 [4]: 1000 nM | LD50 (50% lethal dose/concentration) [5]: 9.8 µM

TNFα
luciferase activity after stimulation [8]: 6111±1231

CCCCCCCCCCCCCC(=O)O[C@@H]1[C@@H](C)[C@@]2(O)[C@@H](C=C(CO)C[C@]3(O)C(=O)C(C)=C[C@@H]23)[C@@H]2C(C)(C)[C@]12OC(C)=O [TPA, 12-O-tetradecanoylphorbol-13-acetate]
luciferase activity after stimulation [8]: 7181±444

CC(C)(C)[Si](C)(C)OC1CC=CC(=O)C1 (stereo not drawn) [Compound B, 5-tert-butyldimethylsilyloxy-cyclohex-2-en-1-one]
IC50 [4]: 400 nM | concentration of anti-viral effect relative to the concentration toxic to uninfected cells [9]: below that at which they were toxic to uninfected cells

CC(C)(C)[Si](C)(C)OC1C=CC(=O)CC1 (stereo not drawn) [Compound A, 4-tert-butyldimethylsilyloxy-cyclohex-2-en-1-one]
IC50 [4]: 1000 nM | concentration of anti-viral effect relative to the concentration toxic to uninfected cells [9]: below that at which they were toxic to uninfected cells
